The values that follow come from patent US11905251B1, “1-cyclopropyl-6-fluoro-7-(4-(2-hydroxy-3-(naphthalen-2-yloxy)propylpiperazin-1-yl)-4-oxo-1,4-dihydroquinoline-3-carboxylic acid as an eco-friendly insecticidal agent against Spodoptera littoralis (boisd.)” (priority 2023, dated 2024).

For this data set, the system named is Spodoptera littoralis (Boisd.) 2nd and 4th instar larvae. Nature of the data set: Insecticidal bioassay screening (castor leaf dip, larval mortality). The format is in vivo. The conditions noted are these: for Toxic ratio: fenoxycarb's LC50 / compound's LC50 × 100. On the procedure:
Five concentrations (200, 100, 50, 25, 12.5 ppm) were designed for this synthetic compound and the reference fenoxycarb compound as the dynamic ingredients based on ppm via diluting the commercial formulation.
In this experiment, castor leaves are immersed in each of the previously prepared concentrations of the components for 10 seconds and then left to dry for 60 minutes. Larvae of the second and fourth instars of each checked strain are prepared with treated leaves in gauze-covered glass containers for 72 hrs. An untreated control is made in which leaves are dipped in triton x-100 and distilled water only. Then the preserved leaves were removed & fresh, untreated leaves were provided for 72 hours. Three replicates (10 larvae each) were checked for each concentration. Daily inspection was carried out for all treatments and mortality percentages were recorded 3 days (72 hours) after treatment. The average mortality percentage was corrected employing Abbott's formula. The corrected mortality rate for each of the previously synthesized compounds is statistically calculated according to Finney (1970). Through this rate, the corresponding concentration test lines (LDP lines) are assessed. Fifty and ninety percent mortality are determined, and the regression values for the checked products were previously evaluated.

Where [1] appears, read: Spodoptera littoralis, foliar, 72 h, 2nd instar larvae of S. littoralis, after 72 h of treatment.
[2] abbreviates: Spodoptera littoralis, foliar, 72 h, 4th instar larvae of S. littoralis, after 72 h of treatment.
Setting [3] is: Spodoptera littoralis, foliar, against Spodoptera littoralis under laboratory conditions (instar not given).

SMILES strings stand for the structures. In brackets after ≈: the same amount, converted by molar mass.

The LC50 is the concentration lethal to half of the exposed cells or organisms. On to `O=C(O)c1cn(C2CC2)c2cc(N3CCN(CC(O)COc4ccc5ccccc5c4)CC3)c(F)cc2c1=O` (stereo not shown) [listing 1 of 2 here], for which the LC50 entry (in vivo) is given as “about 103.01 ppm”.

On to `CCOC(=O)NCCOc1ccc(Oc2ccccc2)cc1` [Fenoxycarb, reference compound], for which the Toxic ratio by setting is: (2nd instar larvae, 72 h) 100; (4th instar larvae, 72 h) 1. Moreover, the LC50 runs as follows: under setting [1], 2.73 µg/mL (≈ 9.06 µM); under setting [2], 43.2 µg/mL (≈ 143 µM); under setting [3], 2.73 µg/mL (≈ 9.06 µM).

As to `O=C(O)c1cn(C2CC2)c2cc(N3CCN(CC(O)COc4ccc5ccccc5c4)CC3)c(F)cc2c1=O` (stereo not shown) [listing 2 of 2 here], the LC50 entry (in vivo) was “about 44.08 ppm”.

`O=C(O)c1cn(C2CC2)c2cc(N3CCN(CC(O)COc4ccc5ccccc5c4)CC3)c(F)cc2c1=O` (stereo not shown) [Compound 7]: the Toxic ratio (2nd instar larvae, 72 h) is 6.1 and the Toxic ratio (4th instar larvae, 72 h) amounted to 41.9. This molecule came in with an LC50 under setting [1] of 44.1 µg/mL (≈ 82.9 µM), an LC50 under setting [2] of 103 µg/mL (≈ 194 µM) and an LC50 under setting [3] of 44.1 µg/mL (≈ 82.9 µM). Further, the “activity against Spodoptera littoralis (in words)” value (compared with reference insecticide fenoxycarb) was “active against Spodoptera littoralis”.
